# pEC50: −log10 of the molar value.
# Biological target: T1, human Farnesoid X Receptor (FXR) ligand binding domain (GST-FXR LBD) (Homo sapiens, UniProt Q96RI1)
# T1 construct: purchased Invitrogen
# T1 sequence (Q96RI1 193-472 isoform Q96RI1-2): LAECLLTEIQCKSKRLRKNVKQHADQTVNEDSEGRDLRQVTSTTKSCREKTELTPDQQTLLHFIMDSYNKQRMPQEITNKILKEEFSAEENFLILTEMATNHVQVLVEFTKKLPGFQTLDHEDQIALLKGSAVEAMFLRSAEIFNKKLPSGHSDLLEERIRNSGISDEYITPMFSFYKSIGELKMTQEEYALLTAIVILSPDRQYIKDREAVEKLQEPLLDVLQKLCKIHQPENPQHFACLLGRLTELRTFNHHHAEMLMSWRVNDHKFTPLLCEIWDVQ
# Test: Human GST-FXR LBD co-activator interaction assay (FXR HTRF assay)
# Type: biochemical
# Conditions: ligand-dependent interaction of GST-FXR LBD with biotin-labeled SRC-1 peptide, response relative to GW4064, read-out: FXR coactivator interaction assay (HTRF)
# Source text: Human GST-FXR LBD Co-Activator Interaction Assay
# The FXR HTRF assay is a biochemical assay measuring the interaction between FXR and a coactivator protein (SRC1). The ligand-induced interaction with a coactivator protein is a critical step in transcriptional activation by FXR. Thus, this is an assay designed to measure FXR agonist activity of the test compounds.
# Recombinant human Farnesoid X Receptor (FXR) ligand binding domain (amino acids 193-472) fused to glutathione S-transferase (GST) purified protein (GST-FXR LBD) was purchased (Invitrogen). The ligand-dependent interaction between GST-FXR LBD and a peptide derived from Steroid Receptor Coactivator-1 (SRC-1) was monitored by Fluorescence Resonance Energy Transfer (FRET). […] Test compounds (in DMSO solution) and detection reagents (anti-GST-Cryptate labeled antibody and Streptavidin-XL665 conjugate; CisBio) were added in assay buffer containing 50 mM KF. Plates are incubated at room temperature in the dark for 2.5 hrs before reading on an Envision (PerkinElmer) at 665 nm and 590 nm. The HTRF assay results were calculated from the 665 nm/590 nm ratio (ratio=(A665 nm/A590 nm)×10^4) and expressed in Delta F %=(Ratiosample−Rationegative)/Rationegative×100.
# A negative control (without Streptavidin-XL665) was run with each assay and represented the background fluorescence. A reference FXR agonist, (E)-3-(2-chloro-4-((3-(2,6-dichlorophenyl)-5-isopropylisoxazol-4-yl)methoxy)styryl)benzoic acid (Compound GW4064), was included in each experiment as positive control. The efficacy of each test compound was compared to that of GW4064. At each concentration, the relative activity of the test compound was expressed as Response %=(Rsample−RDMSO)/(Rpositive−RDMSO), where Rsample is the HTRF response (expressed in Delta F %) for the test compound, Rpositive is the maximal response for GW4064 at saturating concentrations, and RDMSO is the response for DMSO control. The EC50 values were calculated using GraphPad Prism (GraphPad Software) using non-linear regression curve fit (log(agonist) vs. response—variable slope (four parameters)).
row,SMILES,pEC50
1,"Cn1nc(C(=O)N(Cc2ccccc2)Cc2ccc(S(C)(=O)=O)cc2)c2c1-c1cc(Cl)ccc1OC2 [Compound 56, N-benzyl-8-chloro-N-[(4-methanesulfonylphenyl)methyl]-1-methyl-1H,4H-chromeno[4,3-c]pyrazole-3-carboxamide]",6.22
2,"Cn1nc(C(=O)N(CC(=O)NCC2CC2)CC2CCOCC2)c2c1-c1cc(Cl)ccc1OC2 [Compound 40, 2-(1-{8-chloro-1-methyl-1H,4H-chromeno[4,3-c]pyrazol-3-yl}-N-(oxan-4-ylmethyl)formamido)-N-(cyclopropylmethyl)acetamide]",6.22
3,"C[C@@H](C(=O)NCC1CC1)N(Cc1ccccc1F)C(=O)c1nn(C)c2c1COc1ccc(Cl)cc1-2 [Compound 80, (2S)-2-(1-{8-chloro-1-methyl-1H,4H-chromeno[4,3-c]pyrazol-3-yl}-N-[(2-fluorophenyl)methyl]formamido)-N-(cyclopropylmethyl)propanamide]",7.21
4,"Cn1nc(C(=O)N(CC(=O)NCCF)Cc2cccc(F)c2F)c2c1-c1cc(Cl)ccc1OC2 [Compound 33, 2-(1-{8-chloro-1-methyl-1H,4H-chromeno[4,3-c]pyrazol-3-yl}-N-[(2,3-difluorophenyl)methyl]formamido)-N-(2-fluoroethyl)acetamide]",7.21
5,"CCNC(=O)CN(Cc1ccccc1F)C(=O)c1nn(C)c2c1COc1ccc(Cl)cc1-2 [Compound 17, 2-(1-{8-chloro-1-methyl-1H,4H-chromeno[4,3-c]pyrazol-3-yl}-N-[(2-fluorophenyl)methyl]formamido)-N-ethylacetamide]",7.27
6,"Cn1nc(C(=O)N(CC(=O)NCC2CC2)Cc2ccccc2F)c2c1-c1cc(Br)ccc1OC2(C)C [Compound 78, 2-(1-{8-bromo-1,4,4-trimethyl-1H,4H-chromeno[4,3-c]pyrazol-3-yl}-N-[(2-fluorophenyl)methyl]formamido)-N-(cyclopropylmethyl)acetamide]",5.65
7,"CC(C)NC(=O)CN(Cc1cccc(F)c1F)C(=O)c1nn(C)c2c1COc1ccc(Cl)cc1-2 [Compound 42, 2-(1-{8-chloro-1-methyl-1H,4H-chromeno[4,3-c]pyrazol-3-yl}-N-[(2,3-difluorophenyl)methyl]formamido)-N-(propan-2-yl)acetamide]",6.20
8,"Cn1nc(C(=O)N(CC(=O)NCC2CCCO2)Cc2ccccc2F)c2c1-c1cc(Cl)ccc1OC2 (stereo not shown) [Compound 31, 2-(1-{8-chloro-1-methyl-1H,4H-chromeno[4,3-c]pyrazol-3-yl}-N-[(2-fluorophenyl)methyl]formamido)-N-(oxolan-2-ylmethyl)acetamide]",6.91
9,"Cn1nc(C(=O)N(CC(=O)NCC2CCCOC2)Cc2ccccc2F)c2c1-c1cc(Cl)ccc1OC2 (stereo not shown) [Compound 32, 2-(1-{8-chloro-1-methyl-1H,4H-chromeno[4,3-c]pyrazol-3-yl}-N-[(2-fluorophenyl)methyl]formamido)-N-(oxan-3-ylmethyl)acetamide]",6.42
10,"CNC(=O)c1ccc(NC(=O)CN(Cc2ccccc2F)C(=O)c2nn(C)c3c2COc2ccc(Cl)cc2-3)cc1 [Compound 37, 4-[2-(1-{8-chloro-1-methyl-1H,4H-chromeno[4,3-c]pyrazol-3-yl}-N-[(2-fluorophenyl)methyl]formamido)acetamido]-N-methylbenzamide]",6.72
11,"Cn1nc(C(=O)N(CCNc2nccs2)Cc2cccc(F)c2)c2c1-c1cc(Cl)ccc1OC2 [Compound 76, 8-chloro-N-[(3-fluorophenyl)methyl]-1-methyl-N-{2-[(1,3-thiazol-2-yl)amino]ethyl}-1H,4H-chromeno[4,3-c]pyrazole-3-carboxamide]",6.59
12,"Cn1nc(C(=O)N(CCNC(=O)NCC2CC2)Cc2ccccc2F)c2c1-c1cc(Cl)ccc1OC2 [Compound 60, 8-chloro-N-(2-(3-(cyclopropylmethyl)ureido)ethyl)-N-(2-fluorobenzyl)-1-methyl-1,4-dihydrochromeno[4,3-c]pyrazole-3-carboxamide]",5.74
13,"Cn1nc(C(=O)N(CC(=O)NC[C@@H]2CCCO2)Cc2ccccc2F)c2c1-c1cc(Cl)ccc1OC2 [Compound 21, 2-(1-{8-chloro-1-methyl-1H,4H-chromeno[4,3-c]pyrazol-3-yl}-N-[(2-fluorophenyl)methyl]formamido)-N-[(2S)-oxolan-2-ylmethyl]acetamide]",6.80

# Stronger by pEC50, values ahead:
row,pEC50,SMILES
1,8.10,"Cn1nc(C(=O)N(CC(=O)NCC(O)C(F)(F)F)Cc2ccccc2F)c2c1-c1cc(Cl)ccc1OC2 (stereo not shown) [Compound 44, 8-chloro-N-(2-fluorobenzyl)-1-methyl-N-(2-oxo-2-((3,3,3-trifluoro-2-hydroxypropyl)amino)ethyl)-1,4-dihydrochromeno[4,3-c]pyrazole-3-carboxamide]"
2,7.74,"Cn1nc(C(=O)N(CC(=O)NCC2CCOC2)Cc2ccccc2F)c2c1-c1cc(Cl)ccc1OC2 (stereo not shown) [Compound 7, 2-(1-{8-chloro-1-methyl-1H,4H-chromeno[4,3-c]pyrazol-3-yl}-N-[(2-fluorophenyl)methyl]formamido)-N-(oxolan-3-ylmethyl) acetamide]"
3,7.48,"Cn1nc(C(=O)N(CC(=O)NCC(C)(O)C(F)(F)F)Cc2ccccc2F)c2c1-c1cc(Cl)ccc1OC2 (stereo not shown) [Compound 45, 2-(1-{8-chloro-1-methyl-1H,4H-chromeno[4,3-c]pyrazol-3-yl}-N-[(2-fluorophenyl)methyl]formamido)-N-(3,3,3-trifluoro-2-hydroxy-2-methylpropyl)acetamide]"
4,7.30,"CC(C)C(=O)NCCN(Cc1ccccc1)C(=O)c1nn(C)c2c1COc1ccc(Cl)cc1-2 [Compound 73, N-[2-(N-benzyl-1-{8-chloro-1-methyl-1H,4H-chromeno[4,3-c]pyrazol-3-yl}formamido)ethyl]-2-methylpropanamide]"
5,7.74,"CC(C)C(=O)NCCN(Cc1cccc(F)c1)C(=O)c1nn(C)c2c1COc1ccc(Br)cc1-2 [Compound 62, 8-bromo-N-(3-fluorobenzyl)-N-(2-isobutyramidoethyl)-1-methyl-1,4-dihydrochromeno[4,3-c]pyrazole-3-carboxamide]"
6,7.96,"Cn1nc(C(=O)N(CC(=O)NCCC(F)(F)F)Cc2ccccc2F)c2c1-c1cc(Cl)ccc1OC2 [Compound 4, 2-(1-{8-chloro-1-methyl-1H,4H-chromeno[4,3-c]pyrazol-3-yl}-N-[(2-fluorophenyl)methyl]formamido)-N-(3,3,3-trifluoropropyl)acetamide]"
7,7.47,"CC(C)NC(=O)CN(Cc1cc(F)cc(F)c1)C(=O)c1nn(C)c2c1COc1ccc(Br)cc1-2 [Compound 13, 2-(1-{8-bromo-1-methyl-1H,4H-chromeno[4,3-c]pyrazol-3-yl}-N-[(3,5-difluorophenyl)methyl]formamido)-N-(propan-2-yl)acetamide]"
8,7.89,"Cn1nc(C(=O)N(CC(=O)NCCF)Cc2ccccc2F)c2c1-c1cc(Cl)ccc1OC2 [Compound 11, 2-(1-{8-chloro-1-methyl-1H,4H-chromeno[4,3-c]pyrazol-3-yl}-N-[(2-fluorophenyl)methyl]formamido)-N-(2-fluoroethyl)acetamide]"
9,7.85,"Cn1nc(C(=O)N(CC(=O)NC2CCC2)Cc2cccc(F)c2)c2c1-c1cc(Cl)ccc1OC2 [Compound 12, 2-(1-{8-chloro-1-methyl-1H,4H-chromeno[4,3-c]pyrazol-3-yl}-N-[(3-fluorophenyl)methyl]formamido)-N-cyclobutylacetamide]"

# From patent US10351576B2, “Fused tricyclic pyrazole derivatives useful for farnesoid X receptors” (NOVARTIS AG, priority 2015, dated 2019)
